# Ends that are not written are not given here.
# System: subjects with bilateral patello-femoral knee osteoarthritis
# Experiment: Randomized double-blind placebo-controlled clinical study of TPX-100, safety and tolerability
# Assay type: in vivo, human
# [1] = intra-articular, four weekly doses, throughout the study period
substance,measurement,setting,value
TDLQERGDNDISPFSGDGQPFKD-NH2 [TPX-100],Dose-limiting toxicities,"Part A, 20, 50, 100 and 200 mg per intra-articular injection, four weekly injections",no dose-limiting toxicities
same,Severe adverse events related to the drug treatment,[1],no severe adverse events likely or possibly related to the drug treatment
same,Severity of treatment-related adverse events,[1],"mild or moderate, transient"
same,Safety and tolerability of the treatments,"intra-articular, four weekly doses, throughout the study period (12 months)",safe and well tolerated

# Source: patent US10849958B2, “Knee pain evaluation and management via WOMAC and KOOS systems” (ORTHOTROPHIX, INC., priority 2017, dated 2020)
